In patent publication US6835754B2, “Use of aryl nitrone compounds in methods for treating neuropathic pain” (Renovis, Inc., priority 2001, dated 2004):

Experiments:
[1] = system: male Swiss Webster mice, phenylquinone-induced writhing; assay: Phenylquinone (PQ) writhing assay, % inhibition (Swiss Webster mice); assay type: in vivo; settings: for inhibition at 30 mg/kg / % Inhibition of Writhing Response: 30 mg/kg orally in 1% methyl cellulose, 1 hour before PQ 2 mg/kg ip; for inhibition at 30 mg/kg: read-out: % Inhibition of Writhing Response
Protocol: Test compounds were prepared as a suspension in 1% methyl cellulose and dosed orally at a dose of 30 mg/kg to male Swiss Webster mice weighing between 15 and 25 g with 10 mice per group. Test compounds was given 1 hour before the injection of phenylquinone. Phenylquinone (Sigma) was injected intraperitoneally at a dose of 2 mg/kg. After a 5 minute acclimation period, the number of writhes was counted for a 5 minute observation period for each mouse. The total number of writhes for each test compound was compared with a vehicle group. Results were expressed as % inhibition compared to the vehicle treated group means (Table VII).
In related experiment, a dose response relationship was established for the compound of Example 1 using the same experimental protocl as above. […] This is shown graphically in FIG. 2.

[2] = system: Chronic constriction injury (CCI) rats; assay: Bennett chronic constriction injury (CCI) mononeuropathy, cold allodynia assay; assay type: in vivo, Sparague Dawley rats; settings: 100 mg/kg, p.o., tested 1-2 hrs post-dose; FIG. 3
Protocol: The peripheral mononeuropathy was induced by loose ligation of the sciatic nerve in anaesthetized rats. Ten days later, the nociceptive threshold was evaluated. The test compound is administered orally 1 hour prior to pain measurement. For comparison, a predose threshold was determined and a control experiment using 1% methyl cellulose was run. […] Animals were again tested 1-2 hrs post-dose. Predose and postdose average scores are determined.
In a related experiment a dose-response relationship for the compound of Example 20 was determined using the same experimental protocol. […] Animals were again tested 1 hr post-dose.

[3] = system: ICR derived male mice, phenylquinone-induced writhing; assay: Phenylquinone (PQ) Writhing assay, number of writhes (MDS Panlabs, ICR mice); assay type: in vivo; settings: for # Writhes (X + SEM): per os, 60 min before PQ 2 mg/kg ip, vehicle 20.8 ± 0.7, **P<0.01
Protocol: The compounds of Example 20 and Example 16 administered orally at doses of 10, 30 and 100 mg/kg. Vehicle of 2% Tween 80 in distilled water was used.
In this study, ICR derived male mice provided by animal breeding center of MDS Panlabs Taiwan, Ltd. were used. Space allocation for 10 animals was 45×23×15 cm. Mice were housed in APEC^R (Allentown Gaging, Allentown, N.J. 08501, U.S.A.) cages in a positive pressure isolation (NuAire^R, Mode: Nu-605, airflow velocity 50±5 ft/min, HEPA Filter) and maintained in a controlled temperature (22°-24° C.) and humidity (60%-80%) environment with 12 hour light dark cycles for at least one week in MDS Panlabs Taiwan laboratory prior to be used. Free access to standard lab chow for mice (Fwusow Industry Co., Limited, Taiwan) and tap water was granted. All aspects of this work including housing, experimentation and disposal of animals were performed in general accordance with the International Guiding Principles for Biomedical Research Involving Animals (CIOMS Publication No. ISBN 92 90360194, 1985).
The method of Siegmund, E. et al., Proc. Soc. Exp. Biol. Med. 95: 729-731, 1957, “A method for evaluating both non-narcotic and narcotic analgesics” was used. One hour after vehicle or compound administration, the number of writhes was recorded for each mouse in groups of 10 animals during a 5 to 10 minute period following 2 mg/kg. 1.p. of phenylquinone.
Groups of 10 male ICR mice weighing 22±2 gm were employed. Three doses (10, 30 and 100 mg/kg) of test substances suspended in a vehicle of 2% Tween 80 were administered per os. The control group received vehicle alone. […] The mean±SEM value of writhing number for each treatment group was then calculated and Dunnett's test was applied for comparison between vehicle and treated groups. Differences were considered significant when P<0.01.

Rats (Sprague-Dawley) = assay: Rat hot-plate assay (55° C.) for general analgesia; assay type: in vivo
Protocol: The purpose of the experiment was to determine if the compound of Example 16 has significant general analgesic activity as opposed to the desired activity against neuropathic pain. Test compound, 1% methylcellulose as a vehicle and morphine sulfate as a positive standard were tested for analgesic activity using a rat hot-plate assay (55° C.) of Eddy and Leimbach (J. Pharmacol. Ep. Ther 107; 385-393 (1953)) to evaluate nociceptive responses.
Rats (Sprague-Dawley, 217-227 g.) were used with 10 animals per group. Two pre-dose trials to nociceptive responses were determined before administration of compounds. Sixty minutes prior to testing, rats were dosed with either test compound (100 mg/kg, p.), as a suspension in 1% methylcellulose, or 1% methylcellulose as a vehicle ([…], p.). thirty minutes prior to testing, a third group was dosed with morphine sulfate (4.0 mg/kg, 2.0 ml/kg, sc) to test for nociceptive responses using a hot plate. Latency to rear paw licking response or jump response (1) was recorded using an electronic timer. The cut-off time for either response was 30 seconds. Statistical significance was assessed for paired groups using a Turkey test and between non-paired groups using Kruskal-Wallis test. A probability value of <0.05 was identified as statistically significant.

| Compound | melting point | % Inhibition of Writhing Response [1] | other results |
| --- | --- | --- | --- |
| CC(=O)Oc1c(C(C)(C)C)cc(/C=[N+](\[O-])C(C)(C)C)cc1C(C)(C)C [Example 1, α-(4-Acetoxy-3,5-di-tert-butylphenyl)-N-tert-butylnitrone] | – | – | inhibition at 30 mg/kg ([1]; Mus musculus): 65%; ED50 ([1]; Mus musculus, dose response, oral, mice): 2.7 mg/kg |
| CCC(=O)Oc1c(C(C)(C)C)cc(/C=[N+](\[O-])C(C)(C)C)cc1C(C)(C)C [Example 8, α-(4-propionyloxy-3,5-di-tert-butylphenyl)-N-tert-butylnitrone] | 202 to 222 °C | – | – |
| CC(=O)Oc1c(C(C)(C)C)cc(/C=[N+](/C)[O-])cc1C(C)(C)C [Example 9, α-(4-acetoxy-3,5-di-tert-butylphenyl)-N-methylnitrone] | 136 to 143 °C | – | – |
| COCOc1c(C(C)(C)C)cc(/C=[N+](\[O-])C(C)(C)C)cc1C(C)(C)C [Example 16, α-(4-Methoxymethoxy-3,5-di-tert-butylphenyl)-N-tert-butylnitrone] | – | – | effectiveness in cold stimulus latency, Bennett CCI model [2]: effective; analgesia relative to vehicle control group (PQ writhing) ([3]; 100, 30 and 10 mg/kg orally, P<0.01 for all 3 doses, Dunnett's test): significant; # Writhes (X + SEM) ([3]; Dose 30 mg/kg): 3.9 ± 1.3**; # Writhes (X + SEM) ([3]; Dose 10 ml/kg as printed): 14.9 ± 1.2**; # Writhes (X + SEM) ([3]; Dose 100 ml/kg as printed): 1.3 ± 0.6**; effect on hot-plate latency compared with pre-dose (Rats (Sprague-Dawley); 100 mg/kg orally, sixty minutes prior to testing): did not significantly affect; hot-plate latency, post-dose (mean±SEM) (Rats (Sprague-Dawley); 100 mg/kg orally, sixty minutes prior to testing, pre-dose 7.9±1.0 seconds): 9.7 ± 1.0 s |
| CC(C)(C)CC(C)(C)[N+]([O-])=Cc1cc(C(C)(C)C)c(O)c(C(C)(C)C)c1 [Example 21, α-(4-hydroxy-3,5-di-tert-butylphenyl)-N-tert-octylnitrone] | 113 to 115 °C | – | inhibition at 30 mg/kg ([1]; Mus musculus): 30% |
| CCCCCC[N+]([O-])=Cc1cc(C)c(O)c(C)c1 [Example 23, a-(4-hydroxy-3,5-dimethylphenyl)-N-hexylnitrone] | – | 47% | activity in PQ writhing model ([1]; mice, oral): Significant activity |
| CC(C)(C)c1cc(C=[N+]([O-])C(C)(C)CO)cc(C(C)(C)C)c1O [Example 25, a-(4-hydroxy-3,5-di-tert-butylphenyl)-N-(1,1-dimethyl-2-hydroxyethyl)nitrone] | – | 30% | activity in PQ writhing model ([1]; mice, oral): Significant activity |
| CCC(C)(C)[N+]([O-])=Cc1cc(C(C)(C)C)c(O)c(C(C)(C)C)c1 [Example 26, a-(4-hydroxy-3,5-di-tert-butylphenyl)-N-(1,1-dimethylpropyl)nitrone] | – | 48% | – |
| CC(C)[N+]([O-])=Cc1cc(C(C)(C)C)c(O)c(C(C)(C)C)c1 [Example 27, a-(4-hydroxy-3,5-di-tert-butylphenyl)-N-(1-methylethyl)nitrone] | – | 30% | – |
| CC(C)(C)c1cc(C=[N+]([O-])Cc2ccccc2)cc(C(C)(C)C)c1O [Example 28, a-(4-hydroxy-3,5-di-tert-butylphenyl)-N-benzylnitrone] | – | 45% | – |
| COCOc1c(C(C)(C)C)cc(C=[N+]([O-])CC2CCCCC2)cc1C(C)(C)C [Example 29, α-(4-methoxymethoxy-3,5-di-tert-butylphenyl)-N-cyclohexylmethylnitrone] | 143.1 °C | – | – |
| COCOc1c(C(C)(C)C)cc(/C=[N+](\[O-])Cc2ccccc2)cc1C(C)(C)C [Example 31, α-(4-methoxymethoxy-3,5-di-tert-butylphenyl)-N-benzylnitrone] | 134.2 °C | – | – |
| COc1c(C(C)(C)C)cc(/C=[N+](\[O-])C(C)(C)C)cc1C(C)(C)C [Example 32, α-(4-methoxy-3,5-di-tert-butylphenyl)-N-tert-butylnitrone] | 223.1 °C | – | inhibition at 30 mg/kg ([1]; Mus musculus): 38% |
| CCOc1c(C(C)(C)C)cc(/C=[N+](\[O-])C(C)(C)C)cc1C(C)(C)C [Example 33, α-(4-ethoxy-3,5-di-tert-butylphenyl)-N-tert-butylnitrone] | 212.1 °C | – | inhibition at 30 mg/kg ([1]; Mus musculus): 4% |
| CCOC(=O)COc1c(C(C)(C)C)cc(C=[N+]([O-])C(C)(C)C)cc1C(C)(C)C [Example 34, α-(4-carbethoxymethoxy-3,5-di-tert-butylphenyl)-N-tert-butylnitrone] | 188 °C | – | – |
| CN1CC[C@]23c4c5ccc(O)c4O[C@H]2[C@@H](O)C=C[C@H]3[C@H]1C5.O=S(=O)(O)O [morphine sulfate, reference compound] | – | – | effect on hot-plate mean latency compared with pre-dose (Rats (Sprague-Dawley); 4.0 mg/kg sc, thirty minutes prior to testing): significantly increased; hot-plate mean latency to jump/hind paw licking response, post-dose (mean±SEM) (Rats (Sprague-Dawley); 4.0 mg/kg sc, thirty minutes prior to testing, pre-dose 9.9±1.0 seconds, P<0.001): 24.3 ± 2.3 s |
| a-(4-hydroxy-3,5-dimethoxyphenyl)-N-tert-butylnitrone [Example 22] | – | 32% | – |
| a-(4-hydroxy-3,5-dimethylphenyl)-N-tert-butylnitrone [Example 24] | – | 23% | – |
| α-(4-Isobutanoyl-3,5-di-tert-butylphenyl)-N-tert-butylnitrone [Example 2] | – | 29% | – |
| α-(4-n-Butanoyl-3,5-di-tert-butylphenyl)-N-tert-butylnitrone [Example 3] | – | 62% | – |
